Data set [1] has as its target T1, DiHydroFolate Reductase (DHFR) (Rattus norvegicus, UniProt Q920D2).
T1 construct: from tissue; host or cells: rat liver homogenate supernatant
T1 sequence (Q920D2 1-187): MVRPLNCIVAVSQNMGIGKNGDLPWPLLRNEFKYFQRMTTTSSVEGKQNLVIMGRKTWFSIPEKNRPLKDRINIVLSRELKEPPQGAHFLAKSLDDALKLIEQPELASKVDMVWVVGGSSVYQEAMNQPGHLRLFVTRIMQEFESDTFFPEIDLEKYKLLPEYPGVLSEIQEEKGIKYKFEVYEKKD
The experiment in a line: Inhibition of binding of [3H]methotrexate to rat liver homogenate supernatant. The note with it: for inhibition at 125 µM: read-out: [3H]mtx binding (% inhibition @ 125 μM). On the procedure: All steps were carried out at 4° (or on ice). Freshly dissected rat liver was dissected into 0.25M ice-cold Sucrose and subsequently homogenised (U-turrax) in 50 mM pH 6.0 phosphate buffer (10 ml/g tissue) containing 15 mM Dithiothreitol. The resulting homogenate was centrifuged@47,500×g for 20 min and supernatant (filtered through cotton wool to remove fatty lumps) stored @ −80° before use (Rothenberg et al).
Inhibition of the binding of [^3H]methotrexate to rat liver homogenate supernatant fractions were carried out essentially as described by Arons et al, 1975.
(§1) Data are presented as mean±sem of number of experiments indicated in brackets.

Data set [2] concerns sodium channel. Nature of the data set: [14C]guanidine flux: veratrine-evoked uptake of [14C]guanidine into rat forebrain synaptosomes (primary sodium channel assay). In kind it is biochemical. The note with it: 30° for 2½ min. The procedure: The screening strategy is designed to select compounds with appropriate sodium channel blocking activity and low side effect liability. To this end all compounds are processed through the primary sodium channel assay (veratrine-evoked uptake of [^14C]guanidine into rat forebrain synaptosomes) and IC50 values computed from generated concentration-effect curves.
Experiments were performed using forebrain (whole brain less cerebellum/medulla) from Male Wistar rats weighing 175-250 g. All efforts were made to reduce the number of animals used and all experiments were carried out in accordance with the UK Animals (Scientific Procedures) Act, 1986 and the European Community Council Directive of 24 Nov. 1986 (86/609/EEC). Following killing of animals by stunning and decapitation, the forebrain (whole brain less cerebellum/medulla) was rapidly dissected and transferred to a weighed tube containing ice-cold 0.25M sucrose.
Synaptosomes (heavy and light mitochondrial fraction containing synaptosomes) were prepared by transferring the forebrain (of known wet weight) to a glass Potter vessel to which 9 volumes ice-cold 0.25M sucrose had been added and homogenising, using a teflon pestle, by 8 ‘up and down strokes’ of a Braun Potter S motor driven homogeniser set to 900 rpm. The resulting homogenate was centrifuged at 1036×g at 4° for 10 min and the supernatant collected. The remaining pellet was resuspended, as above, in fresh ice-cold 0.25M sucrose and the centrifugation step repeated. The supernatant fractions were pooled and centrifuged at 40,000×g (average) at 4° for 15 min and the resulting pellet resuspended in the appropriate assay buffer at a concentration of 20-25 mg wet weight per ml appropriate assay buffer.
Both assays were carried out using 14 ml polypropylene test tubes to which a range of concentrations of the compounds under test were added.
The [^14C] guanidinine flux assay was measured using the method of Pauwels P J et al (1986) but carried out@30° for 2½ min.
as §1

Drawing on US8691818B2, “Cyclic triazo and diazo sodium channel blockers” (University Of Greenwich, priority 2008, dated 2014), this text covers inhibition, melting point and IC50 for 29 compounds.

Bounds are passed on as bounds.

For the compound `Nc1nnc(-c2sccc2Br)c(N)n1` [CEN-125, 3,5-Diamino-6-[2-(3-bromothienyl)]-1,2,4-triazine], the melting point (in general, the temperature of the solid-liquid transition) was 215 to 217 °C. Moreover, the inhibition (commonly the drop in the measured response relative to a control, in per cent) at 125 µM in data set [1] is 6%. Also, the half-inhibitory concentration (IC50) (as a rule, the concentration needed to halve the response being measured) in data set [2] was 7590 µM.
For `Nc1nnc(-c2c(Cl)cccc2Cl)c(N)n1` [CEN-104, 3,5-Diamino-6-(2,6-dichlorophenyl)-1,2,4-triazine], in that order: 160 to 162 °C, 23% and more than 1000 µM.
For `Nc1nnc(-c2cccc(OCc3ccccc3)c2)c(N)n1` [CEN-123, 3,5-Diamino-6-(3-Benzyloxyphenyl)-1,2,4-triazine] the same measures were 284 to 286 °C, 86% and 41.7 µM.
`Nc1nnc(-c2cccc(OC(F)(F)C(F)F)c2)c(N)n1` [CEN-108, 3,5-Diamino-6-[3-(1,1,2,2-tetrafluoroethoxy)phenyl]-1,2,4-triazine] showed a melting point of 199 to 200 °C. The inhibition at 125 µM in data set [1] turned out to be 81%. The midpoint of inhibition in data set [2], the IC50, lay at 813 µM.
`Nc1nnc(-c2ccsc2)c(N)n1` [CEN-64, 3,5-Diamino-6-(3-thienyl)-1,2,4-triazine]: the melting point was 199 to 201 °C. Moreover, the inhibition at 125 µM in data set [1] amounted to 52%. In data set [2], the IC50 is more than 2000 µM.
For `Nc1nnc(-c2ccc3c(c2)OCCO3)c(N)n1` [CEN-109, 3,5-Diamino-6-(3,4-ethylenedioxyphenyl)-1,2,4-triazine], in that order: 220 to 222 °C, 80% and more than 1000 µM.
In the case of `Cn1nc(-c2cccc(Oc3ccccc3)c2)c(N)nc1=N` [CEN-106, 5(3)-Amino-6-(3-phenoxyphenyl)-2,3(2,5)-dihydro-3(5)-imino-2-methyl-1,2,4-triazine], the melting point is 160 to 161 °C. For the same compound, the inhibition at 125 µM in data set [1] was determined as 43%. Moreover, in data set [2], the IC50 was 26.9 µM.
Compound `Nc1nnc(-c2cc(OCC(F)(F)F)cc(OCC(F)(F)F)c2)c(N)n1` [CEN-193, 3,5-Diamino-6-[3,5-bis(2,2,2-trifluoroethoxy)phenyl]-1,2,4-triazine] had a melting point of 185 to 187 °C. Further, the inhibition at 99 µM in data set [1] (read-out: [3H]mtx binding % inhibition (* 99 μM, *** uses fresh batch of supernatant), 99 μM, fresh batch of supernatant) amounted to 99%. In addition, in data set [2], 135 µM corresponded to half-maximal inhibition (IC50).
In the case of `COc1ccc(-c2nnc(N)nc2N)cc1OC` [CEN-115, 3,5-Diamino-6-(3,4-dimethoxyphenyl)-1,2,4-triazine], the melting point lay in the range of 288 to 290 °C. The inhibition at 125 µM in data set [1] was determined as 61%. Further, the IC50 in data set [2] is more than 1000 µM.
As to `Nc1nnc(C(c2ccccc2)(c2ccccc2)c2ccccc2)c(N)n1` [CEN-153, 3,5-Diamino-6-(triphenylmethy)-1,2,4-triazine], the melting point lay within 124 to 126 °C. The inhibition at 125 µM in data set [1] stood at 2%. In addition, the IC50 in data set [2] was determined as 50.1 µM.
For `Nc1nnc(-c2cccs2)c(N)n1` [CEN-57, 3,5-Diamino-6-(2-thienyl)-1,2,4-triazine], in that order: 271 to 272 °C (dec.), 44% and more than 2000 µM.
For `Nc1nnc(C2(c3ccc(Cl)cc3)CCCC2)c(N)n1` [CEN-148, 3,5-Diamino-6-[1-(4-chlorophenyl)-1-cyclopenty]-1,2,4-triazine] the same measures were 184 to 186 °C, 38% and 20.4 µM.
As for `Nc1nnc(-c2cccc3c2CCCC3)c(N)n1` [CEN-94], the melting point is 202 to 204 °C. In addition, the inhibition at 125 µM in data set [1] is -2%. Also, in data set [2], the IC50 is 398 µM.
On to `Nc1nnc(C2(c3ccc(Cl)cc3)CC2)c(N)n1` [CEN-154, 3,5-Diamino-6-[1-(4-chlorophenyl)-1-cyclopropyl]-1,2,4-triazine], for which the melting point was in the range of 157 to 159 °C. In addition, the inhibition at 125 µM in data set [1] was found to be 13%. The same compound returned a half-maximal inhibitory concentration (IC50) in data set [2] of 162 µM.
For `Nc1nnc(-c2cccc3ccccc23)c(N)n1` [CEN-72, 6-(1-Naphthyl)-1,2,4-triazine-3,5-diamine] the same measures were 194 to 196 °C, 101% and 132 µM.
For `Nc1nnc(-c2cc(C(F)(F)F)ccc2Cl)c(N)n1` [CEN-169, 3,5-Diamino-6-(2-chloro 5 trifluoromethylphenyl)-1,2,4-triazine] the same measures were 238 to 239 °C, 95% and 347 µM.
For `Nc1nnc(-c2cccc(Br)c2)c(N)n1` [CEN-69, 3,5-Diamino-6-(3-bromophenyl)-1,2,4-triazine] the same measures were 221 to 222 °C, 66% and 776 µM.
In the case of `Nc1nnc(-c2ccccc2Oc2ccccc2)c(N)n1` [CEN-97, 3,5-Diamino-6-(2-phenoxphenyl)-1,2,4-triazine], the melting point lay in the range of 200 to 202 °C. For the same compound, the inhibition at 125 µM in data set [1] came to 101%. Moreover, the IC50 in data set [2] stood at 363 µM.
For `Nc1nnc(-c2ccccc2OC(F)(F)C(F)F)c(N)n1` [CEN-137, 3,5-Diamino-6-[2-(1,1,2,2-tetrafluoroethoxy)phenyl]-1,2,4-triazine], in that order: 158 to 160 °C, 23% and more than 2000 µM.
For `Nc1nnc(-c2ccc(Cl)s2)c(N)n1` [CEN-138, 3,5-Diamino-6-[2-(5-chlorothienyl)]-1,2,4-triazine], in that order: 312 to 314 °C, 67% and more than 2000 µM.
For `Nc1nnc(-c2ccccc2OC(F)F)c(N)n1` [CEN-142], in that order: 154 to 155 °C, 12% and more than 2000 µM.
`Nc1nnc(-c2cc3ccccc3s2)c(N)n1` [CEN-113, 3,5-Diamino-6-[2-(benzo[b]thiophenyl)]-1,2,4-triazine] yielded a melting point of 344 to 345 °C. For the same compound, the inhibition at 125 µM in data set [1] stood at 65%. Also, the midpoint of inhibition in data set [2], the IC50, lay at 2000 µM.
For `CC(C)(C)c1ccc(-c2nnc(N)nc2N)cc1` [CEN-181, 3,5-Diamino-6-(4-tertbutylphenyl)-1,2,4-triazine], in that order: 275 to 276 °C, 101% and 74 µM.
For `Nc1nnc(-c2ccc(OCc3ccccc3)cc2)c(N)n1` [CEN-131, 3,5-Diamino-6-(4-Benzyloxyphenyl)-1,2,4-triazine] the same measures were 205 to 207 °C, 94% and 288 µM.
For `CCCCc1ccc(-c2nnc(N)nc2N)cc1` [CEN-183, 3,5-Diamino-6-(4-n-butylphenyl)-1,2,4-triazine], the melting point fell in the range of 184 to 186 °C. Besides, in data set [1], the inhibition at 125 µM was 106%. The compound further came in with an IC50 in data set [2] of 39 µM.
For `Nc1nnc(-c2sc3ccccc3c2Cl)c(N)n1` [CEN-114, 3,5-Diamino-6-[2-(3-chlorobenzo[b]thiophenyl)]-1,2,4-triazine], in that order: 318 to 320 °C, 46% and 174 µM.
For `Nc1nnc(-c2cc(Br)c(Br)s2)c(N)n1` [CEN-122, 3,5-Diamino-6-[2-(4,5-dibromothienyl)]-1,2,4-triazine], in that order: 318 to 320 °C, 86% and more than 1000 µM.
For `Nc1nnc(-c2ccc(Br)s2)c(N)n1` [CEN-124, 3,5-Diamino-6-[2-(5-bromothienyl)]-1,2,4-triazine], in that order: 265 to 268 °C, 90% and 871 µM.
Compound `Nc1cnc(-c2ccc3ccccc3c2)c(N)n1` [CEN-88, 2,6-Diamino-3-(2-naphthyl)pyrazine] returned a melting point of 163 to 165 °C. For the same compound, the inhibition at 125 µM in data set [1] worked out at 82%. This compound also gave a half-inhibitory concentration (IC50) in data set [2] of 190 µM.
